Measurements taken from patent US20070167631A1, “Novel herbicides” (priority 2003, published 2007).

How the values were obtained:
Type in all cases: in vivo
[1] = tested on: Amaranthus; assay: Post-emergence herbicidal action (Example B2); details: 250 g/ha, after about 18 days, rating scale 10=total damage, 0=no action
Text: (§1) Monocotyledonous and dicotyledonous test plants are cultivated in a greenhouse in standard soil in plastic pots and, at the 4- to 6-leaf stage, are sprayed with an aqueous suspension of the test compounds of formula I prepared from a 25% wettable powder (Example F3, b) according to WO 97/34485) or with an emulsion of the test compounds of formula I prepared from a 25% emulsifiable concentrate (Example F1, c) according to WO 97/34485), corresponding to concentrations of 125 and 250 g of active ingredient per hectare (500 litres of water per ha). The test plants are then grown on in the greenhouse under optimum conditions. After a test duration of about 18 days, the test is evaluated in accordance with a scale of eleven ratings (10=total damage, 0=no action). Ratings of from 10 to 7 (especially from 10 to 8) indicate very good to good herbicidal action.

[2] = tested on: Chenopodium; assay: Post-emergence herbicidal action (Example B2); details: 250 g/ha, after about 18 days, rating scale 10=total damage, 0=no action
Text: as §1

[3] = tested on: Echinochloa; assay: Post-emergence herbicidal action (Example B2); details: 250 g/ha, after about 18 days, rating scale 10=total damage, 0=no action
Text: as §1

[4] = tested on: Euphorbia; assay: Post-emergence herbicidal action (Example B2); details: 250 g/ha, after about 18 days, rating scale 10=total damage, 0=no action
Text: as §1

[5] = tested on: Panicum; assay: Post-emergence herbicidal action (Example B2); details: 250 g/ha, after about 18 days, rating scale 10=total damage, 0=no action
Text: as §1

[6] = tested on: Stellaria; assay: Post-emergence herbicidal action (Example B2); details: 250 g/ha, after about 18 days, rating scale 10=total damage, 0=no action
Text: as §1

[7] = tested on: Xanthium; assay: Post-emergence herbicidal action (Example B2); details: 250 g/ha, after about 18 days, rating scale 10=total damage, 0=no action
Text: as §1

[8] = tested on: Digitaria; assay: Microscreen, post-emergence herbicidal action (Example B3); details: 250 g/ha, evaluated after 9 or 13 days, scale of eleven ratings (10=total damage, 0=no action)
Description: (§2) Example B3 Microscreen, Post-Emergence Herbicidal Action Monocotyledonous and dicotyledonous test plants are sown in sterilised standard soil in seed trays each having 96 cells. After 8 to 9 days' cultivation under controlled conditions in a climatic chamber (cultivation at 17/23° C.; 13 hours' light; 50-60% humidity; after application at 19/24° C.), the plants are treated with an aqueous spray solution of 1000 mg/l of the active ingredient used ([…]; incl. 10% DMSO as solvent). The plants are grown on in the climatic chamber until the test is evaluated after 9 or 13 days. The test is evaluated in accordance with a scale of eleven ratings (10=total damage, 0=no action). Ratings of from 10 to 7 (especially from 10 to 8) indicate very good to good herbicidal action.

[9] = tested on: Stellaria; assay: as above; details: 250 g/ha, evaluated after 9 or 13 days, scale of eleven ratings (10=total damage, 0=no action)
Description: as §2

[10] = tested on: Amaranthus; assay: as above; details: 250 g/ha, evaluated after 9 or 13 days, scale of eleven ratings (10=total damage, 0=no action)
Description: (§3) Example B3 Microscreen, Post-Emergence Herbicidal Action Monocotyledonous and dicotyledonous test plants are sown in sterilised standard soil in seed trays each having 96 cells. […] The plants are grown on in the climatic chamber until the test is evaluated after 9 or 13 days. The test is evaluated in accordance with a scale of eleven ratings (10=total damage, 0=no action). Ratings of from 10 to 7 (especially from 10 to 8) indicate very good to good herbicidal action.

[11] = tested on: Nasturtium; assay: as above; details: 250 g/ha, evaluated after 9 or 13 days, scale of eleven ratings (10=total damage, 0=no action)
Description: as §3

[12] = tested on: Solanum; assay: as above; details: 250 g/ha, evaluated after 9 or 13 days, scale of eleven ratings (10=total damage, 0=no action)
Description: as §3

CC1(C)C(=O)C(C(=O)c2ccc(C(F)(F)F)c(-n3ccc(C(F)(F)F)n3)n2)=C(O)C(C)(C)C1=O [Compound 2.080]
Post-emergence action: Amaranthus [1]: 9 | Post-emergence action: Chenopodium [2]: 6 | Post-emergence action: Echinochloa [3]: 9 | Post-emergence action: Euphorbia [4]: 9 | Post-emergence action: Panicum [5]: 9 | Post-emergence action: Stellaria [6]: 7 | Post-emergence action: Xanthium [7]: 9

CN(C(=O)c1ccccc1)c1nc(C(=O)C2=C(O)CCCC2=O)ccc1C(F)(F)F [Compound 1.091]
Digitaria, herbicidal action rating [8]: 2 | Stellaria, herbicidal action rating [9]: 6 | Amaranthus, herbicidal action rating [10]: 8 | Nasturtium, herbicidal action rating [11]: 9 | Solanum, herbicidal action rating [12]: 9

O=C1CCCC(O)=C1C(=O)c1ccc(C(F)(F)F)c(-n2cccn2)n1 [Compound 1.080]
Digitaria, herbicidal action rating [8]: 5 | Stellaria, herbicidal action rating [9]: 9 | Amaranthus, herbicidal action rating [10]: 7 | Nasturtium, herbicidal action rating [11]: 10 | Solanum, herbicidal action rating [12]: 9

CC(C)=NOCCOc1nc(C(=O)C2=C(O)C(C)(C)C(=O)C(C)(C)C2=O)ccc1C(F)(F)F [Compound 2.010]
Digitaria, herbicidal action rating [8]: 3 | Stellaria, herbicidal action rating [9]: 8 | Amaranthus, herbicidal action rating [10]: 8 | Nasturtium, herbicidal action rating [11]: 9 | Solanum, herbicidal action rating [12]: 9

O=C1CCCC(O)=C1C(=O)c1ccc(OCC(F)(F)F)c(N2CCOCC2)n1 [Compound 1.094]
Digitaria, herbicidal action rating [8]: 8 | Stellaria, herbicidal action rating [9]: 7 | Amaranthus, herbicidal action rating [10]: 9 | Nasturtium, herbicidal action rating [11]: 8 | Solanum, herbicidal action rating [12]: 10

Cc1nc(C(=O)C2=C(O)CCCC2=O)ccc1C(F)(F)F [Compound 1.211]
Digitaria, herbicidal action rating [8]: 5 | Stellaria, herbicidal action rating [9]: 8 | Amaranthus, herbicidal action rating [10]: 8 | Nasturtium, herbicidal action rating [11]: 10 | Solanum, herbicidal action rating [12]: 8

Cc1cc(-c2nc(C(=O)C3=C(O)C(C)(C)C(=O)C(C)(C)C3=O)ccc2C(F)(F)F)on1 [Compound 2.202]
Digitaria, herbicidal action rating [8]: 6 | Stellaria, herbicidal action rating [9]: 10 | Amaranthus, herbicidal action rating [10]: 6 | Nasturtium, herbicidal action rating [11]: 10 | Solanum, herbicidal action rating [12]: 10

COCCOc1nc(C(=O)C2=C(O)C(C)(C)C(=O)C(C)(C)C2=O)ccc1C(F)(F)F [Compound 2.003]
Post-emergence action: Amaranthus [1]: 8 | Post-emergence action: Chenopodium [2]: 8 | Post-emergence action: Echinochloa [3]: 9 | Post-emergence action: Euphorbia [4]: 9 | Post-emergence action: Panicum [5]: 9 | Post-emergence action: Stellaria [6]: 9 | Post-emergence action: Xanthium [7]: 8

CC1=NOC(c2nc(C(=O)C3=C(O)CCCC3=O)ccc2C(F)(F)F)C1 (stereo not shown) [Compound 1.203]
Post-emergence action: Amaranthus [1]: 8 | Post-emergence action: Chenopodium [2]: 9 | Post-emergence action: Echinochloa [3]: 8 | Post-emergence action: Euphorbia [4]: 7 | Post-emergence action: Panicum [5]: 9 | Post-emergence action: Stellaria [6]: 7 | Post-emergence action: Xanthium [7]: 8

CCOc1nc(C(=O)C2=C(O)C(C)(C)C(=O)C(C)(C)C2=O)ccc1C(F)(F)F [Compound 2.095]
Post-emergence action: Amaranthus [1]: 9 | Post-emergence action: Chenopodium [2]: 8 | Post-emergence action: Echinochloa [3]: 9 | Post-emergence action: Euphorbia [4]: 9 | Post-emergence action: Panicum [5]: 9 | Post-emergence action: Stellaria [6]: 5 | Post-emergence action: Xanthium [7]: 9

CC1(C)C(=O)C(C(=O)c2ccc(C(F)(F)F)c(C#N)n2)=C(O)C(C)(C)C1=O [Compound 2.208]
Post-emergence action: Amaranthus [1]: 8 | Post-emergence action: Chenopodium [2]: 6 | Post-emergence action: Echinochloa [3]: 9 | Post-emergence action: Euphorbia [4]: 8 | Post-emergence action: Panicum [5]: 9 | Post-emergence action: Stellaria [6]: 5 | Post-emergence action: Xanthium [7]: 8

O=C1CCCC(O)=C1C(=O)c1ccc(C(F)(F)F)c(-n2ccc(C(F)(F)F)n2)n1 [Compound 1.081]
Post-emergence action: Amaranthus [1]: 10 | Post-emergence action: Chenopodium [2]: 9 | Post-emergence action: Echinochloa [3]: 9 | Post-emergence action: Euphorbia [4]: 9 | Post-emergence action: Panicum [5]: 10 | Post-emergence action: Stellaria [6]: 6 | Post-emergence action: Xanthium [7]: 9

CC1(C)OC(C)(C)C(O)=C(C(=O)c2ccc(C(F)(F)F)c(N3CCOCC3)n2)C1=O [Compound 3.076]
Post-emergence action: Amaranthus [1]: 7 | Post-emergence action: Chenopodium [2]: 9 | Post-emergence action: Echinochloa [3]: 7 | Post-emergence action: Euphorbia [4]: 6 | Post-emergence action: Panicum [5]: 7 | Post-emergence action: Stellaria [6]: 7 | Post-emergence action: Xanthium [7]: 8

COCCOc1nc(C(=O)C2=C(O)CCCC2=O)ccc1C(F)(F)F [Compound 1.003]
Post-emergence action: Amaranthus [1]: 9 | Post-emergence action: Chenopodium [2]: 10 | Post-emergence action: Echinochloa [3]: 8 | Post-emergence action: Euphorbia [4]: 6 | Post-emergence action: Panicum [5]: 8 | Post-emergence action: Stellaria [6]: 10 | Post-emergence action: Xanthium [7]: 9

CC1(C)CC(C)(C)C(O)=C(C(=O)c2ccc(C(F)(F)F)c(N3CCOCC3)n2)C1=O [Compound 3.075]
Post-emergence action: Amaranthus [1]: 2 | Post-emergence action: Chenopodium [2]: 9 | Post-emergence action: Echinochloa [3]: 7 | Post-emergence action: Euphorbia [4]: 7 | Post-emergence action: Panicum [5]: 5 | Post-emergence action: Stellaria [6]: 8 | Post-emergence action: Xanthium [7]: 8

COc1nc(C(=O)C2=C(O)C(C)(C)C(=O)C(C)(C)C2=O)ccc1C(F)(F)F [Compound 2.094]
Post-emergence action: Amaranthus [1]: 3 | Post-emergence action: Chenopodium [2]: 9 | Post-emergence action: Echinochloa [3]: 8 | Post-emergence action: Euphorbia [4]: 8 | Post-emergence action: Panicum [5]: 8 | Post-emergence action: Stellaria [6]: 9 | Post-emergence action: Xanthium [7]: 7

C=C(OCC)c1nc(C(=O)C2=C(O)C(C)(C)C(=O)C(C)(C)C2=O)ccc1C(F)(F)F [Compound 2.188]
Post-emergence action: Amaranthus [1]: 5 | Post-emergence action: Chenopodium [2]: 6 | Post-emergence action: Echinochloa [3]: 7 | Post-emergence action: Euphorbia [4]: 7 | Post-emergence action: Panicum [5]: 9 | Post-emergence action: Stellaria [6]: 10 | Post-emergence action: Xanthium [7]: 8

O=C1CCCC(O)=C1C(=O)c1ccc(C(F)(F)F)c(OC2CCOC2)n1 (stereo not shown) [Compound 1.021]
Post-emergence action: Amaranthus [1]: 9 | Post-emergence action: Chenopodium [2]: 8 | Post-emergence action: Echinochloa [3]: 6 | Post-emergence action: Euphorbia [4]: 7 | Post-emergence action: Panicum [5]: 6 | Post-emergence action: Stellaria [6]: 7 | Post-emergence action: Xanthium [7]: 9

CCC(=O)N(C)c1nc(C(=O)C2=C(O)CCCC2=O)ccc1C(F)(F)F [Compound 1.090]
Post-emergence action: Amaranthus [1]: 8 | Post-emergence action: Chenopodium [2]: 9 | Post-emergence action: Echinochloa [3]: 7 | Post-emergence action: Panicum [5]: 8 | Post-emergence action: Stellaria [6]: 6 | Post-emergence action: Xanthium [7]: 8

O=C1CCC2(CC2)C(O)=C1C(=O)c1ccc(C(F)(F)F)c(N2CCOCC2)n1 [Compound 3.068]
Post-emergence action: Amaranthus [1]: 10 | Post-emergence action: Chenopodium [2]: 9 | Post-emergence action: Echinochloa [3]: 9 | Post-emergence action: Euphorbia [4]: 9 | Post-emergence action: Panicum [5]: 10 | Post-emergence action: Stellaria [6]: 9 | Post-emergence action: Xanthium [7]: 9

C=C(OCC)c1nc(C(=O)C2=C(O)CCCC2=O)ccc1C(F)(F)F [Compound 1.189]
Digitaria, herbicidal action rating [8]: 7 | Stellaria, herbicidal action rating [9]: 8 | Nasturtium, herbicidal action rating [11]: 9 | Solanum, herbicidal action rating [12]: 9

CC1=NOC(c2nc(C(=O)C3=C(O)C(C)(C)C(=O)C(C)(C)C3=O)ccc2C(F)(F)F)C1 (stereo not shown) [Compound 2.201]
Post-emergence action: Amaranthus [1]: 9 | Post-emergence action: Chenopodium [2]: 8 | Post-emergence action: Echinochloa [3]: 8 | Post-emergence action: Euphorbia [4]: 6 | Post-emergence action: Panicum [5]: 9 | Post-emergence action: Stellaria [6]: 6 | Post-emergence action: Xanthium [7]: 8

N#CC1CC(=O)C(C(=O)c2ccc(C(F)(F)F)c(N3CCOCC3)n2)=C(O)C1 (stereo not shown) [Compound 3.212]
Post-emergence action: Amaranthus [1]: 8 | Post-emergence action: Chenopodium [2]: 7 | Post-emergence action: Echinochloa [3]: 5 | Post-emergence action: Euphorbia [4]: 7 | Post-emergence action: Panicum [5]: 0 | Post-emergence action: Stellaria [6]: 7 | Post-emergence action: Xanthium [7]: 8
